Test results taken from patent publication US20140243302A1, “BRIDGED BICYCLIC COMPOUNDS FOR THE TREATMENT OF BACTERIAL INFECTIONS” (priority 2011, published 2014).
Values after ≈ are worked out from the molar mass of the structure shown.

tested on: Staphylococcus aureus Smith; assay: MIC assay, modified agar dilution (CLSI), S. aureus Smith; type: cell-based; details: Staphylococcus aureus, agar dilution, 35° C., 16-20 hr; lowest concentration that completely inhibited growth; read-out: S_aureus_Smith_WT_MIC
Summary of the method: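 Strains were spotted at about 1×10^4 CFU onto compound-containing Mueller Hinton agar (two-fold series, 128-0.001 μg/mL), horse blood 5% added for pneumococcus and enterococcus. MIC read after 16-20 hr at 35 °C, following a modified CLSI agar dilution method.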

For `COc1cc2ncc(=O)n(CCC34CCC(NCc5ccc6c(n5)NC(=O)CO6)(CC3)CO4)c2cc1OC` [Example 115, 6-((1-(2-(6,7-Dimethoxy-2-oxoquinoxalin-1(2H)-yl)ethyl)-2-oxabicyclo[2.2.2]octan-4-ylamino)methyl)-2H-pyrido[3,2-b][1,4]oxazin-3(4H)-one], which MIC is on record?
The MIC was 0.5 µg/mL (≈ 0.959 µM).

Which MIC does the source give for `COc1ccc2ncc(F)c(CCC34CCC(NCc5ccc(N6CCCC6)cn5)(CC3)CO4)c2n1` [Example 63, 1-(2-(3-Fluoro-6-methoxy-1,5-naphthyridin-4-yl)ethyl)-N-((5-(pyrrolidin-1-yl)pyridin-2-yl)methyl)-2-oxabicyclo[2.2.2]octan-4-amine] here?
Its MIC is 0.25 µg/mL (≈ 0.509 µM).

For `NCC1(COc2ccc3ncc(F)c(CCC45CCC(NCc6ccc7c(n6)NC(=O)CO7)(CC4)CO5)c3n2)CC1` [Example 43, 6-((1-(2-(6-((1-(Aminomethyl)cyclopropyl)methoxy)-3-fluoro-1,5-naphthyridin-4-yl)ethyl)-2-oxabicyclo[2.2.2]octan-4-ylamino)methyl)-2H-pyrido[3,2-b][1,4]oxazin-3(4H)-one], which MIC is on record?
Its MIC is 1 µg/mL (≈ 1.78 µM).

With `O=C1COc2ccc(CNC34CCC(CCn5c(=O)ccc6ncc(Br)cc65)(CC3)OC4)nc2N1` [Example 130, 6-((1-(2-(7-Bromo-2-oxo-1,5-naphthyridin-1(2H)-yl)ethyl)-2-oxabicyclo[2.2.2]octan-4-ylamino)methyl)-2H-pyrido[3,2-b][1,4]oxazin-3(4H)-one] as the compound, how does the MIC read?
Its MIC is 0.063 µg/mL (≈ 0.117 µM).

`COc1ccc2ncc(F)c(CCC34CCC(NCc5cc(-c6cccs6)on5)(CC3)CO4)c2n1` [Example 73, 1-(2-(3-Fluoro-6-methoxy-1,5-naphthyridin-4-yl)ethyl)-N-((5-(thiophen-2-yl)isoxazol-3-yl)methyl)-2-oxabicyclo[2.2.2]octan-4-amine] was tested. Which MIC did it give?
The MIC was 0.016 µg/mL (≈ 0.0323 µM).

With `COc1ccc2ncc(F)c(CCC34CCC(NC(=O)c5ccc(C)c(F)c5)(CC3)CO4)c2n1` [Example 68, 3-Fluoro-N-(1-(2-(3-fluoro-6-methoxy-1,5-naphthyridin-4-yl)ethyl)-2-oxabicyclo[2.2.2]octan-4-yl)-4-methylbenzamide] as the compound, how does the MIC read?
The MIC was 0.016 µg/mL (≈ 0.0342 µM).

How did the MIC turn out when `COc1ccc2ncc(F)c(CCC34CCC(NCc5ccc6c(n5)NC(=O)CO6)(CC3)CC4)c2n1.Cl` [Example 4, 6-((4-(2-(3-Fluoro-6-methoxy-1,5-naphthyridin-4-yl)ethyl)bicyclo[2.2.2]octan-1-ylamino)methyl)-2H-pyrido[3,2-b][1,4]oxazin-3(4H)-one Hydrochloride] was run?
Its MIC is 0.016 µg/mL.

How did the MIC turn out when `COc1ccc2c(n1)c(CCC13CCC(NCc4ccc5c(n4)NC(=O)CO5)(CC1)CO3)cc(=O)n2C` [Example 49, 6-(((1-(2-(6-Methoxy-1-methyl-2-oxo-1,2-dihydro-1,5-naphthyridin-4-yl)ethyl)-2-oxabicyclo[2.2.2]octan-4-yl)amino)methyl)-2H-pyrido[3,2-b][1,4]oxazin-3(4H)-one] was run?
Its MIC is 1 µg/mL (≈ 1.98 µM).

For `COc1ccc2ncc(F)c(CC(O)C34CCC(NCc5cc6c(cn5)OCCO6)(CC3)CO4)c2n1` (single isomer, unassigned) [Example 132, 1-(4-((2,3-Dihydro-[1,4]dioxino[2,3-c]pyridin-7-yl)methylamino)-2-oxabicyclo[2.2.2]octan-1-yl)-2-(3-fluoro-6-methoxy-1,5-naphthyridin-4-yl)ethanol], which MIC is on record?
Its MIC is 0.031 µg/mL (≈ 0.0624 µM).

How did the MIC turn out when `N[C@H]1C(=O)N[C@@H]1COc1ccc2ncc(F)c(CCC34CCC(NCc5ccc6c(n5)NC(=O)CO6)(CC3)CO4)c2n1` [Example 164, 6-((1-(2-(6-(((2S,3R)-3-Amino-4-oxoazetidin-2-yl)methoxy)-3-fluoro-1,5-naphthyridin-4-yl)ethyl)-2-oxabicyclo[2.2.2]octan-4-ylamino)methyl)-2H-pyrido[3,2-b][1,4]oxazin-3(4H)-one] was run?
Its MIC is 0.5 µg/mL (≈ 0.866 µM).

How did the MIC turn out when `COc1ccc2ncc(F)c(CCC34CCC(NCc5cc(Cl)c6c(c5)OCCO6)(CC3)CO4)c2n1` [Example 67, N-((8-Chloro-2,3-dihydrobenzo[b][1,4]dioxin-6-yl)methyl)-1-(2-(3-fluoro-6-methoxy-1,5-naphthyridin-4-yl)ethyl)-2-oxabicyclo[2.2.2]octan-4-amine] was run?
The MIC was 0.031 µg/mL (≈ 0.0603 µM).

For `COc1ccc2ncc(F)c(CC(O)C34CCC(NCc5ccc6c(c5)OCCO6)(CC3)CO4)c2n1` (centres unmarked) [Example 172, 1-{4-[(2,3-Dihydro-1,4-benzodioxin-6-ylmethyl)amino]-2-oxabicyclo[2.2.2]oct-1-yl}-2-(3-fluoro-6-methoxy-1,5-naphthyridin-4-yl)ethanol], which MIC is on record?
Its MIC is 0.031 µg/mL (≈ 0.0626 µM).

How did the MIC turn out when `O=C1COc2ccc(CNC34CCC(CCc5c(Cl)cnc6ccc(O)nc56)(CC3)CC4)nc2N1` [Example 9, 6-((4-(2-(3-Chloro-6-hydroxy-1,5-naphthyridin-4-yl)ethyl)bicyclo[2.2.2]octan-1-ylamino)methyl)-2H-pyrido[3,2-b][1,4]oxazin-3(4H)-one] was run?
The MIC was 0.125 µg/mL (≈ 0.253 µM).

With `COc1ccc2ncc(C#N)c(CCC34CCC(NCc5cc6ccccc6n(C)c5=O)(CC3)CO4)c2n1.Cl` [Example 46, 6-Methoxy-4-(2-(4-((1-methyl-2-oxo-1,2-dihydroquinolin-3-yl)methylamino)-2-oxabicyclo[2.2.2]octan-1-yl)ethyl)-1,5-naphthyridine-3-carbonitrile Hydrochloride] as the compound, how does the MIC read?
The MIC was 2 µg/mL.

Which MIC does the source give for `COc1ccc2ncc(F)c(CCC34CCC(NCc5nc6ccccc6[nH]c5=O)(CC3)CO4)c2n1` [Example 97, 3-(((1-(2-(3-Fluoro-6-methoxy-1,5-naphthyridin-4-yl)ethyl)-2-oxabicyclo[2.2.2]octan-4-yl)amino)methyl)quinoxalin-2(1H)-one] here?
Its MIC is 1 µg/mL (≈ 2.04 µM).

With `O=C1COc2ccc(CNC34CCC(CCn5c(=O)ccc6ncc(Cl)cc65)(CC3)OC4)nc2N1` [Example 129, 6-((1-(2-(7-Chloro-2-oxo-1,5-naphthyridin-1(2H)-yl)ethyl)-2-oxabicyclo[2.2.2]octan-4-ylamino)methyl)-2H-pyrido[3,2-b][1,4]oxazin-3(4H)-one] as the compound, how does the MIC read?
The MIC was 0.063 µg/mL (≈ 0.127 µM).

With `COc1ccc2ncc(F)c(CC(C)(O)C34CCC(NCc5ccc6c(n5)NC(=O)CO6)(CC3)CO4)c2n1.Cl` (centres unmarked) [Example 190, 6-((1-(1-(3-Fluoro-6-methoxy-1,5-naphthyridin-4-yl)-2-hydroxypropan-2-yl)-2-oxabicyclo[2.2.2]octan-4-ylamino)methyl)-2H-pyrido[3,2-b][1,4]oxazin-3(4H)-one Hydrochloride] as the compound, how does the MIC read?
Its MIC is 0.063 µg/mL.

How did the MIC turn out when `COc1ccc2ncc(F)c(CCC34CCC(NCc5ccc6c(n5)NS(=O)(=O)CO6)(CC3)CO4)c2n1` [Example 163, 7-((1-(2-(3-Fluoro-6-methoxy-1,5-naphthyridin-4-yl)ethyl)-2-oxabicyclo[2.2.2]octan-4-ylamino)methyl)-1H-pyrido[2,3-e][1,3,4]oxathiazine-2,2-dioxide] was run?
Its MIC is 4 µg/mL (≈ 7.55 µM).

same assay, conditions: agar dilution, 35° C., 16-20 hr; lowest concentration that completely inhibited growth

Which S_aureus_Smith_WT_MIC does the source give for `COc1ccc2ccc(=O)n(CC(O)C34CCC(NCc5ccc6c(n5)NC(=O)CO6)(CC3)CO4)c2n1` (single isomer, unassigned) [Example 52a, 6-(((1-(1-Hydroxy-2-(7-methoxy-2-oxo-1,8-naphthyridin-1(2H)-yl)ethyl)-2-oxabicyclo[2.2.2]octan-4-yl)amino)methyl)-2H-pyrido[3,2-b][1,4]oxazin-3(4H)-one] here?
The S_aureus_Smith_WT_MIC was 0.0310 µg/mL.

same assay, conditions: agar dilution, 35° C., 16-20 hr; lowest concentration that completely inhibited growth; Hydrochloride

Which S_aureus_Smith_WT_MIC does the source give for `COc1ccc2ncc(F)c(C3OC(=O)OC3C34CCC(NCc5ccc6c(n5)NC(=O)CO6)(CC3)CO4)c2n1.Cl` (single isomer, unassigned) [Example 27b, 6-((1-(5-(3-fluoro-6-methoxy-1,5-naphthyridin-4-yl)-2-oxo-1,3-dioxolan-4-yl)-2-oxabicyclo[2.2.2]octan-4-ylamino)methyl)-2H-pyrido[3,2-b][1,4]oxazin-3(4H)-one hydrochloride] here?
The S_aureus_Smith_WT_MIC was 2.00 µg/mL.
